Like-named read-outs stand apart in the source and are kept apart here.
Assays:
[1] = In vitro injection of substrate and sodium permanganate solutions into a beaker, reaction temperature by thermocouple; type: physicochemical; conditions: for Average maximum temperature increase (° C.) Permanganate first / Average peak temperature (° C.) Permanganate first / Average maximum temperature increase (° C.) Simultaneous / Average peak temperature (° C.) Simultaneous / Average maximum temperature increase (° C.) Substrate first / Average peak temperature (° C.) Substrate first: substrate 1M/1 mL; for average maximum temperature: simultaneous injections, substrate 180 g/L, permanganate (1M, 1 mL)
Experimental: In vitro studies: All reagents were obtained from Sigma-Aldrich Chemical Co. (St. Louis, Mo.) unless otherwise noted. […] Exemplary reaction products of glycerol oxidation by permanganate include tartronic acid and glyceric acid (FIG. 8). Reaction temperature was measured by a thermocouple probe (type T MT-29/1; Physitemp Instruments, Clifton, N.J.) placed at the center of the beaker, with the tip submerged underneath the surface of the mixed solutions. Temperature recordings were made by a T-type thermocouple thermometer (Digi-Sense; Cole-Parmer, Vernon Hills, Ill.) at time intervals of 1 to 3 seconds from the onset of injections until the temperature dropped below 40° C. A series of different permanganate volumes (1, 2, and 3 mL) and concentrations (1 and 2M) were tested in order to study the effects of volume and concentration on temperature. Selected experiments were repeated with glucose, sucrose, maltodextrin (4-7 glucose unit average), and dextrin as substrates. The remaining substrates were different polysaccharides (starch, cellulose and glycogen) and polyvinyl alcohol. See, FIG. 9. All were used as 180 g/L (carbohydrates based on glucose) solutions and/or suspensions rather than expressing concentration in molarity due to their polymeric nature.

HuH-7 cells [2] = tested on: HuH-7 cells
HuH-7 cells [3] = assay: DNA fragmentation assay, HuH-7; type: cell-based, human; conditions: 1 M urea for 2 hours
Experimental: (§1) Cell lysates were incubated at 37° C. for 3 hours, and the samples were centrifuged at 13,000 rpm for 30 minutes. Supernatants containing DNA were extracted with phenol-chloroform and precipitated with ethanol. Equal amounts of DNA were resolved on a 2% agarose gel containing ethidium bromide, and bands corresponding to nucleosomes were visualized under ultra violet light.

143B cells = assay: DNA fragmentation assay, 143B; type: cell-based, human
Experimental: as §1

MCF-7 cells = assay: DNA fragmentation assay, MCF-7; type: cell-based, human
Experimental: as §1

[4] = tested on: breast cancer cell line MCF-7; assay: MTT cell viability assay, MCF-7
Experimental: Cells were plated in 96-well plates for the MTT assays at a concentration of 3×10^5 cells per well overnight prior to performing the assays.
Cell viability assay: Cell viability assays were performed using as a substrate the MTT reagent 3-(4,5-Dimethylthiazol-2-yl)-2,5-diphenyltetrazolium bromide (Sigma-Aldrich, St. Louis, Mo.) at a concentration of 10 μg/100 μl. Growth medium was aspirated from the wells and cells were washed twice with 1×PBS. […] One hundred μl of MTT substrate was added to each well in a 96-well plate and plates were incubated for 1 hour at 37° C. Cells were then gently washed in 1×PBS and 100 μl stop solution (acidified phenol) was added to each well. Plates were incubated again at 37° C. for 30 minutes and the colorimetric changes in the cells were measured using a plate reader at 570 nm. Only the live viable cells are able to convert yellow colored MTT reagent into purple colored formazan.

HepG2 cells = conditions: Castañeda and Kinne 2000; cited from earlier work
[5] = tested on: osteosarcoma cell line 143B; type: cell-based
[6] = NaMnO4 (1M/1 mL), permanganate first
[7] = NaMnO4 (1M/1 mL), simultaneous injection
[8] = NaMnO4 (1M/1 mL), substrate first
[9] = NaMnO4 (1M/2 mL), permanganate first
[10] = NaMnO4 (1M/2 mL), simultaneous injection
[11] = NaMnO4 (1M/2 mL), substrate first
[12] = NaMnO4 (1M/3 mL), permanganate first
[13] = NaMnO4 (1M/3 mL), simultaneous injection
[14] = NaMnO4 (1M/3 mL), substrate first
[15] = NaMnO4 (2M/1 mL), permanganate first
[16] = NaMnO4 (2M/1 mL), simultaneous injection
[17] = NaMnO4 (2M/1 mL), substrate first
[18] = 3% ethanol, exposure for 2 hours

Row | Compound | Average maximum temperature increase (° C.) Permanganate first [1, 6] [°C] | Average peak temperature (° C.) Permanganate first [1, 6] [°C] | Average maximum temperature increase (° C.) Simultaneous [1, 7] [°C] | Average peak temperature (° C.) Simultaneous [1, 7] [°C] | Average maximum temperature increase (° C.) Substrate first [1, 8] [°C] | Average peak temperature (° C.) Substrate first [1, 8] [°C] | Average maximum temperature increase (° C.) Permanganate first [1, 9] [°C] | Average peak temperature (° C.) Permanganate first [1, 9] [°C] | Average maximum temperature increase (° C.) Simultaneous [1, 10] [°C] | Average peak temperature (° C.) Simultaneous [1, 10] [°C] | Average maximum temperature increase (° C.) Substrate first [1, 11] [°C] | Average peak temperature (° C.) Substrate first [1, 11] [°C] | Average maximum temperature increase (° C.) Permanganate first [1, 12] [°C] | Average peak temperature (° C.) Permanganate first [1, 12] [°C] | Average maximum temperature increase (° C.) Simultaneous [1, 13] [°C] | Average peak temperature (° C.) Simultaneous [1, 13] [°C] | Average maximum temperature increase (° C.) Substrate first [1, 14] [°C] | Average peak temperature (° C.) Substrate first [1, 14] [°C] | Average maximum temperature increase (° C.) Permanganate first [1, 15] [°C] | Average peak temperature (° C.) Permanganate first [1, 15] [°C] | other results
1 | OCC(O)CO [Glycerol, glycerol] | 37.6 | 59.3 | 41.4 | 63.9 | 48.4 | 71.1 | 48.5 | 70.3 | 66.3 | 89.1 | 64.4 | 86.7 | 55.3 | 77.9 | 66.6 | 90.6 | 67.5 | 90.3 | 75.4 | 97.0 | Average maximum temperature increase (° C.) Simultaneous [1, 16]: 74.5 °C; Average peak temperature (° C.) Simultaneous [1, 16]: 97.4 °C; Average maximum temperature increase (° C.) Substrate first [1, 17]: 76.9 °C; Average peak temperature (° C.) Substrate first [1, 17]: 99.1 °C; average maximum temperature, permanganate first ([1]; volume of substrate (1M) raised to 2 mL, permanganate 1M, permanganate first): 54.1 °C; average maximum temperature, simultaneous ([1]; volume of substrate (1M) raised to 2 mL, permanganate 1M, simultaneous injection): 53.1 °C; average maximum temperature, substrate first ([1]; volume of substrate (1M) raised to 2 mL, permanganate 1M, substrate first): 56.7 °C
2 | dextrin |  |  |  |  |  |  |  |  |  |  |  |  |  |  |  |  |  |  |  |  | average maximum temperature [1]: 51.1 °C
3 | OC[C@H]1O[C@@](CO)(O[C@H]2O[C@H](CO)[C@@H](O)[C@H](O)[C@H]2O)[C@@H](O)[C@@H]1O [Sucrose, sucrose] | 24.9 | 46.4 | 33.5 | 56.8 | 37.1 | 58.9 | 42.1 | 64.9 | 51.0 | 73.6 | 60.0 | 82.1 | 51.5 | 74.6 | 66.9 | 90.1 | 63.0 | 85.1 | 76.7 | 100.0 | average maximum temperature, permanganate-first ([1]; concentration of the sucrose solution (1 mL) raised to 2M, permanganate-first): 100.0 °C; average maximum temperature, simultaneous ([1]; concentration of the sucrose solution (1 mL) raised to 2M, simultaneous injection): 100.2 °C; average maximum temperature, sucrose-first ([1]; concentration of the sucrose solution (1 mL) raised to 2M, sucrose-first): 99.8 °C; Average maximum temperature increase (° C.) Simultaneous [1, 16]: 77.0 °C; Average peak temperature (° C.) Simultaneous [1, 16]: 100.2 °C; Average maximum temperature increase (° C.) Substrate first [1, 17]: 77.7 °C; Average peak temperature (° C.) Substrate first [1, 17]: 99.8 °C; average temperature increase, permanganate-first ([1]; volume of sucrose solution increased to 2 mL, permanganate-first): 44.6 °C; average temperature increase, simultaneous ([1]; volume of sucrose solution increased to 2 mL, simultaneous injection): 45.9 °C; average temperature increase, sucrose-first ([1]; volume of sucrose solution increased to 2 mL, sucrose-first): 51.0 °C
4 | NC(N)=O [urea] |  |  |  |  |  |  |  |  |  |  |  |  |  |  |  |  |  |  |  |  | cells survived (HuH-7 cells [2]; 250 mM urea, 24 hours): 50%; cells survived (HuH-7 cells [2]; 750 mM urea, 6 hour exposure): about 50%; apoptosis by DNA laddering (HuH-7 cells [3]): induced apoptosis; apoptosis by DNA laddering (143B cells; 1 M urea for 2 hours): induced apoptosis; apoptosis by DNA laddering (MCF-7 cells; 1 M urea for 2 hours): induced apoptosis
5 | maltodextrin |  |  |  |  |  |  |  |  |  |  |  |  |  |  |  |  |  |  |  |  | average maximum temperature [1]: 42.5 °C
6 | CCO [ethanol] |  |  |  |  |  |  |  |  |  |  |  |  |  |  |  |  |  |  |  |  | cells died ([4]; 1% ethanol, 24 hour exposure): > 90%; cell death [4, 18]: > 90%; cell death (HuH-7 cells [2]; 2% ethanol, 6 hours of exposure): 50%; cytotoxicity (HuH-7 cells [2]; 4% ethanol, 2 hours): lethal; cytotoxicity (HuH-7 cells [2]; ethanol 3% (v/v)): toxic; cytotoxicity (HuH-7 cells [2]; ethanol 5% (v/v)): toxic; apoptosis (HepG2 cells): induces apoptosis; cells died ([5]; 1% ethanol, 24 hour exposure): > 90%; cell death [5, 18]: > 90%; apoptosis by DNA laddering (143B cells; 10% ethanol for 6 hours): A similar result; apoptosis by DNA laddering (MCF-7 cells; 10% ethanol for 6 hours): A similar result
